In patent US20240327471A1, “IL-10 INDUCING POLYPEPTIDES AND USES THEREOF” (ENTEROME S.A., priority 2021, published 2024):

Experiments:
human ileal explants = experiment: Ex vivo human ileal explants in Ussing chambers inflamed with E. coli LF82 (TER, histology, IL-8 ELISA); format: cell-based
Method: Next, the role of NAT_29 was evaluated in the context of inflammatory diseases using ex vivo experiments performed on human ileal resections. To this end, explants were mounted on Ussing Chambers in order to separate the apical side from the basolateral side as naturally occurs in the gut. Tissues were pre-incubated 1 h with NAT_29 (SEQ ID NO: 1) before inflammation was triggered with live Escherichia coli LF82 during 4 hours.
Preparation of Bacteria: The day before the assay, LB broth (Sigma Aldrich, L3522) was inoculated, using sterile loops, with bacteria from a glycerol stock (E. coli LF82-gfp) maintained at −80° C. Tubes were incubated overnight at 37° C. without shaking. The next day, optical density of the bacterial suspensions was read at 600 nm using a spectrophotometer (Amersham Ultrospec 10) allowing estimation of the bacterial cell density and bacteria were added to human explants as explained below.
Human tissue samples were obtained from patients undergoing surgery with the patients' agreement. Samples were taken from macroscopically unaffected area as identified by the surgeon. […]
Three parameters were assessed to evaluate the anti-inflammatory potential of NAT_29 in the ex vivo model: • 1) Transepithelial Electrical Resistance (TER) which is a measure of integrity/tightness of the human explants; • 2) histology; • 3) IL-8 secretion (quantified by Elisa).
TER assays are well-known methods for measuring effects on the structural and functional integrity of an epithelial cell layer, which are described, for example, in: Srinivasan et al., 2015, J Lab Autom, 20:107-126. Accordingly, the integrity/tightness of the human explants during the incubation was evaluated through Transepithelial Electrical Resistance (TER) measurement using Millicell-ERS (Electrical Resistance System) Voltohmmeter (Millipore, MERS00002). […]
IL-8 levels were measured by ELISA (BD Biosciences, 555244). […] Absorbances were measured using a microplate reader (BioTek, Synergy MX, model SMATLD) at 490 nm. […]

[1] = tested on: monocyte-derived dendritic cells (MoDCs); experiment: NAT_29 dose response, IL-10 secretion from MoDCs co-stimulated with LPS (AlphaLISA); format: cell-based, human; details: 0.1 to 1000 nM; LPS 100 ng/ml; 24 hours
Method: To investigate the IL-10 inducing/enhancing capacity of NAT_29, in vitro IL-10 secretion of human immune cells in the presence of different doses of NAT_29 was tested. Briefly, human CD14+ monocytes were isolated from peripheral blood mononuclear cells (PBMCs) from healthy human volunteers by density gradient centrifugation using SepMate™-50 IVD tubes (Stemcell, Ref. 85460). The obtained PBMCs were washed thrice with Dulbeccos's phosphate buffered saline (PBS, Sigma, D88537) and lysed 10 min at room temperature in Red blood Lysis buffer 1X (Miltenyi Biotec, 130-094-183). Cells were washed with MACS buffer (Miltenyi Biotec, 130-091-221) and counted using the trypan blue dye exclusion method. CD14+monocytes were sorted using anti-human CD14 Microbeads (Miltenyi Biotec, 130-050-201) as per manufacturer's protocol. Positive CD14+ fractions were collected and seeded at 2×10^4 cells per well in 384 well plates in IMDM medium (Gibco, 12440-046) supplemented with 10% FBS and 1X antibiotic solution.
Monocyte-derived dendritic cells (MoDCs) were derived from the differentiation of CD14+ cells, obtained after the selective sorting. […]
[…] IL-10 secretion were measured at 24 hours by AlphaLISA® on cell supernatants according to the supplier's protocol and read on an Envision plate reader (Perkin Elmer).

KKGSRSCFFIYLDRGTKKGSRSCFFYLP (NAT_29) [28-amino-acid fragment of microbiota protein ID3166]
IL-8 secretion (ELISA, basolateral side) (human ileal explants; 1000 or 10 nM, LF82 4 h (LF82 alone 4-fold increase)): completely abolished IL-8 secretion | TER reduction (human ileal explants; pre-incubation 1 h at 1000 nM or 10 nM, then E. coli LF82 4 hours, LF82 alone 52%, control without LF82 24%): 32% | histology (H&E staining) of explants (human ileal explants; pre-incubation with 1000 nM, LF82 4 h): protective effect against LF82-induced degradation | IL-10 secretion from MoDCs [1]: highest IL-10 levels were measured in both cell types at the highest concentration of NAT_29 tested
